Assays:
green foxtail [1] = assay: Test E green foxtail; format: in vivo, Setaria viridis; settings: Preemergence
morningglory = assay: Test B pre/postemergence morningglory; format: in vivo, Ipomoea hederacea
How it was run: (§1)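 Response is a visual 0-to-10 score relative to untreated plants, where 0 means no effect and 10 means complete control, taken twelve to sixteen days after application. Treatments went onto soil at planting and onto foliage of 1- to 4-leaf plants, using a surfactant-containing non-phytotoxic solvent.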

winter wheat [2] = assay: Test E winter wheat; format: in vivo, Triticum aestivum; settings: Preemergence
winter barley = assay: Test E winter barley; format: in vivo, Hordeum vulgare; settings: Preemergence
common groundsel = assay: Test D common groundsel; format: in vivo, Senecio vulgaris; settings: Postemergence, 0 to 100 scale
blackgrass = assay: Test E blackgrass; format: in vivo, Alopecurus myosuroides; settings: Preemergence
winter wheat [3] = assay: Test E winter wheat; format: in vivo, Triticum aestivum; settings: Postemergence; for Plant response rating, Wheat (winter): 0 to 100 scale, 0 is no effect, 100 is complete control
How it was run: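 Greenhouse test: for postemergence, foliar application at 1- to 4-leaf stage; compound in non-phytotoxic solvent with surfactant. Rating is visual, relative to untreated controls, about 21 to 28 days after treatment.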

wild oat = assay: Test E wild oat; format: in vivo, Avena fatua; settings: Preemergence
Green foxtail [4] = assay: Test D green foxtail; format: in vivo; settings: Rate 250 g/ha; Postemergence; 0 to 100 scale
Italian ryegrass = assay: Test E Italian ryegrass; format: in vivo, Lolium multiflorum; settings: Preemergence
pigweed = assay: Test B pre/postemergence pigweed; format: in vivo, Amaranthus retroflexus
How it was run: as §1

guineagrass = assay: Test D guineagrass; format: in vivo, Panicum maximum; settings: Postemergence, 0 to 100 scale
giant foxtail = assay: Test B pre/postemergence giant foxtail; format: in vivo, Setaria faberii
How it was run: as §1

common pursiane = assay: Test D common purslane; format: in vivo, Portulaca oleracea; settings: Postemergence, 0 to 100 scale
large crabgrass = assay: Test D large crabgrass; format: in vivo, Digitaria sanguinalis; settings: Postemergence, 0 to 100 scale
[5] = Rate 125 g/ha, 0 to 100 scale (0 no effect, 100 complete control)
[6] = Rate 500 g/ha, 0 to 100 scale where 0 is no effect and 100 is complete control
[7] = Preemergence, Rate 62 g/ha, scale of 0 to 10 where 0 is no effect and 10 is complete control
[8] = Preemergence, Rate 250 g/ha, scale of 0 to 10 where 0 is no effect and 10 is complete control
[9] = Preemergence, Rate 500 g/ha, scale of 0 to 10 where 0 is no effect and 10 is complete control
[10] = Rate 62 g/ha, Postemergence, scale of 0 to 10 where 0 is no effect and 10 is complete control
[11] = Rate 125 g/ha, Preemergence, scale of 0 to 10 where 0 is no effect and 10 is complete control
[12] = Rate 500 g/ha, Postemergence, scale 0 to 10, 0 no effect, 10 complete control
[13] = Rate 16 g/ha, 0 no injury, 100 complete control
[14] = Rate 32 g/ha, 0 no injury, 100 complete control
[15] = Rate 64 g/ha, 0 no injury, 100 complete control
[16] = Rate 125 g/ha, 0 no injury, 100 complete control
[17] = Postemergence, Rate 125 g/ha, scale 0 to 10, 0 is no effect, 10 is complete control
[18] = Preemergence, Rate 62 g/ha, scale 0 to 10 (0 no effect, 10 complete control)

CC(C)N(C(=O)n1oc(=O)n(C2CC2)c1=O)c1ccccc1 [Compound 243]
Plant response rating, Green foxtail (green foxtail [1]; [5]): 75
Green foxtail plant response rating (0 to 100 scale) (green foxtail [1]; Rate 250 g/ha): 100
Plant response rating, Green foxtail (green foxtail [1]; [6]): 100
Morningglory plant response rating (morningglory; [7]): 2
Morningglory plant response rating (morningglory; [8]): 8
Plant response rating, Morningglory (morningglory; [9]): 10
Morningglory plant response rating (morningglory; [10]): 5
Morningglory plant response rating (morningglory; [11]): 3
Plant response rating (0 to 10; 0 is no effect, 10 is complete control), Morningglory (morningglory; Rate 250 g/ha, Postemergence): 7
Morningglory plant response rating (morningglory; [12]): 8
Plant response rating, Wheat (winter) (winter wheat [2]; [5]): 50
Wheat (winter) plant response rating (0 to 100 scale) (winter wheat [2]; Rate 250 g/ha): 70
Plant response rating, Wheat (winter) (winter wheat [2]; [6]): 75
Plant response rating, Barley (winter) (winter barley; [5]): 30
Barley (winter) plant response rating (0 to 100 scale) (winter barley; Rate 250 g/ha): 60
Plant response rating, Barley (winter) (winter barley; [6]): 70
Plant response rating, Com. groundsel (common groundsel; [13]): 0
Plant response rating, Com. groundsel (common groundsel; [14]): 0
Plant response rating, Com. groundsel (common groundsel; [15]): 0
Plant response rating, Com. groundsel (common groundsel; [16]): 100
Plant response rating, Com. groundsel (common groundsel; Rate 250 g/ha): 100
Plant response rating, Blackgrass (blackgrass; [5]): 65
Blackgrass plant response rating (0 to 100 scale) (blackgrass; Rate 250 g/ha): 85
Plant response rating, Blackgrass (blackgrass; [6]): 100
Plant response rating, Wheat (winter) (winter wheat [3]; Rate 125 g/ha): 70
Wheat (winter) plant response rating (winter wheat [3]; Rate 250 g/ha, 0 to 100 scale where 0 is no effect and 100 is complete control): 75
Plant response rating, Wheat (winter) (winter wheat [3]; Rate 500 g/ha): 80
Plant response rating, Wild oat (wild oat; [5]): 60
Wild oat plant response rating (0 to 100 scale) (wild oat; Rate 250 g/ha): 55
Plant response rating, Wild oat (wild oat; [6]): 90
Plant response rating, Green foxtail (Green foxtail [4]): 100
Plant response rating, I. Ryegrass (Italian ryegrass; [5]): 70
I. Ryegrass plant response rating (0 to 100 scale) (Italian ryegrass; Rate 250 g/ha): 85
Plant response rating, I. Ryegrass (Italian ryegrass; [6]): 100
Redroot pigweed plant response rating (pigweed; [7]): 6
Redroot pigweed plant response rating (pigweed; [8]): 10
Plant response rating, Redroot pigweed (pigweed; [9]): 10
Redroot pigweed plant response rating (pigweed; [10]): 2
Redroot pigweed plant response rating (pigweed; [11]): 9
Plant response rating (0 to 10; 0 is no effect, 10 is complete control), Redroot pigweed (pigweed; Rate 250 g/ha, Postemergence): 7
Redroot pigweed plant response rating (pigweed; [12]): 7
Plant response rating, Guineagrass (guineagrass; [13]): 0
Plant response rating, Guineagrass (guineagrass; [14]): 0
Guineagrass plant response rating (guineagrass; [15]): 0
Plant response rating, Guineagrass (guineagrass; [15]): 20
Plant response rating, Guineagrass (guineagrass; [16]): 100
Plant response rating, Guineagrass (guineagrass; Rate 250 g/ha): 100
Giant foxtail plant response rating (giant foxtail; [7]): 10
Giant foxtail plant response rating (giant foxtail; [8]): 10
Plant response rating, Giant foxtail (giant foxtail; [9]): 10
Giant foxtail plant response rating (giant foxtail; [10]): 3
Giant foxtail plant response rating (giant foxtail; [11]): 10
Plant response rating (0 to 10; 0 is no effect, 10 is complete control), Giant foxtail (giant foxtail; Rate 250 g/ha, Postemergence): 8
Giant foxtail plant response rating (giant foxtail; [12]): 8
Plant response rating, C. purslane (common pursiane; [13]): 0
Plant response rating, C. purslane (common pursiane; [14]): 0
Plant response rating, C. purslane (common pursiane; [15]): 0
Plant response rating, C. purslane (common pursiane; [16]): 0
Plant response rating, C. purslane (common pursiane; Rate 250 g/ha): 0
Plant response rating Large crabgrass (large crabgrass; [13]): 0
Plant response rating Large crabgrass (large crabgrass; [14]): 70
Plant response rating Large crabgrass (large crabgrass; [15]): 100
Plant response rating Large crabgrass (large crabgrass; [16]): 100
Plant response rating Large crabgrass (large crabgrass; Rate 250 g/ha): 100

COCC(C)n1c(=O)on(C(=O)N(c2ccc(F)cc2F)C(C)C)c1=O (stereo not drawn) [Compound 352]
Plant response rating, Morningglory (morningglory; [17]): 6
Plant response rating, Morningglory (morningglory; [18]): 0
Morningglory plant response rating (0 to 10 scale) (morningglory; Preemergence, Rate 125 g/ha): 0
Morningglory plant response rating (morningglory; [8]): 0
Morningglory plant response rating (morningglory; [9]): 2
Morningglory plant response rating (morningglory; [10]): 0
Plant response rating, Morningglory (morningglory; [12]): 8
Plant response rating, Com. groundsel (common groundsel; [14]): 0
Plant response rating, Com. groundsel (common groundsel; [15]): 50
Plant response rating, Com. groundsel (common groundsel; [16]): 100
Plant response rating, Com. groundsel (common groundsel; Rate 250 g/ha): 100
Plant response rating, Green foxtail (Green foxtail [4]): 100
Plant response rating, Redroot pigweed (pigweed; [17]): 3
Redroot pigweed plant response rating (0 to 10 scale) (pigweed; Preemergence, Rate 125 g/ha): 3
Redroot pigweed plant response rating (pigweed; [8]): 10
Redroot pigweed plant response rating (pigweed; [9]): 10
Redroot pigweed plant response rating (pigweed; [10]): 0
Plant response rating, Redroot pigweed (pigweed; [12]): 4
Plant response rating, Guineagrass (guineagrass; [13]): 0
Plant response rating, Guineagrass (guineagrass; [14]): 0
Guineagrass plant response rating (guineagrass; [15]): 20
Plant response rating, Guineagrass (guineagrass; [15]): 60
Plant response rating, Guineagrass (guineagrass; [16]): 80
Plant response rating, Guineagrass (guineagrass; Rate 250 g/ha): 100
Plant response rating, Giant foxtail (giant foxtail; [17]): 2
Plant response rating, Giant foxtail (giant foxtail; [18]): 10
Giant foxtail plant response rating (0 to 10 scale) (giant foxtail; Preemergence, Rate 125 g/ha): 10
Giant foxtail plant response rating (giant foxtail; [8]): 10
Giant foxtail plant response rating (giant foxtail; [9]): 10
Giant foxtail plant response rating (giant foxtail; [10]): 2
Plant response rating, Giant foxtail (giant foxtail; [12]): 9
Plant response rating, C. purslane (common pursiane; [13]): 0
Plant response rating, C. purslane (common pursiane; [14]): 0
Plant response rating, C. purslane (common pursiane; [15]): 0
Plant response rating, C. purslane (common pursiane; [16]): 0
Plant response rating, C. purslane (common pursiane; Rate 250 g/ha): 0
Plant response rating Large crabgrass (large crabgrass; [13]): 0
Plant response rating Large crabgrass (large crabgrass; [14]): 100
Plant response rating Large crabgrass (large crabgrass; [15]): 100
Plant response rating Large crabgrass (large crabgrass; [16]): 100
Plant response rating Large crabgrass (large crabgrass; Rate 250 g/ha): 100

— patent US6737383B1, “Herbicidal oxadiazolidines” (priority 1999, dated 2004)
